Assay results as given in US8815909B2, “Diaminocyclohexane compounds and uses thereof” (Bristol-Myers Squibb Company, priority 2011, dated 2014).

Biological target: T1, human Y4 receptor (Homo sapiens, UniProt P50391)
T1 construct: expressed in transfected cells
Assay: NPY4 cAMP HTRF Agonist Assay (inhibitory cAMP assay, Gi activation by Y4 agonism)
Assay type: cell-based
Conditions: human Y4 receptor, cAMP; read-out: hY4 CAMP EC50
Summary of the method: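 Y4 agonism read as lowered forskolin-stimulated cAMP (HTRF, 1 h detection at room temperature). Stable human Y4 CHO clone, 5000 cells/well, incubated 30 min at room temperature with compounds plus forskolin and IBMX in PBS.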

T1 sequence (P50391 whole entry): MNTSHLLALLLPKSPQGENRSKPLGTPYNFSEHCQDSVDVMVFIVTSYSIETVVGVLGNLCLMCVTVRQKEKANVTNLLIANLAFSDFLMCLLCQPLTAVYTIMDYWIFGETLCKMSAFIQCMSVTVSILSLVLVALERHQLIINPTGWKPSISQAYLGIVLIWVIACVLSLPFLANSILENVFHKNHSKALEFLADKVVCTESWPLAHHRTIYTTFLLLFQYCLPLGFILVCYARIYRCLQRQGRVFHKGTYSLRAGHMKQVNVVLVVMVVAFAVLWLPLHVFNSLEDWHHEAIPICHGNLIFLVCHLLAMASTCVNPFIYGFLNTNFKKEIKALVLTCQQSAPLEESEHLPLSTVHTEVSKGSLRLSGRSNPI

With `COC(=O)Nc1cccc(-c2cnc(N[C@@H]3CCCC[C@H]3N[C@H]3CCCN(c4ccc5nc(C)nn5c4)C3)o2)c1` [Example 490] as the compound, how does the EC50 read?
Its EC50 is 1 nM.

`Cc1nc2ccc(N3CCC[C@H](N[C@@H]4CCCC[C@H]4Nc4cc(-c5cccc(C(N)=O)c5)ccn4)C3)cn2n1` [Example 491] was tested. Which EC50 did it give?
The EC50 was 22 nM.

How did the EC50 turn out when `Cc1nc2ccc(N3CCC[C@H](N[C@@H]4CCCC[C@H]4Nc4ncc(-c5ccc(F)c(F)c5)o4)C3)cn2n1` [Example 492] was run?
Its EC50 is 38 nM.

For `Cc1nc2ccc(N3CCC[C@H](N[C@@H]4CCCC[C@H]4Nc4ncc(-c5ccc(F)cc5F)o4)C3)cn2n1` [Example 493], which EC50 is on record?
Its EC50 is 47 nM.

For `Cc1nc2ccc(N3CCC[C@H](N[C@@H]4CCCC[C@H]4Nc4ncc(-c5cccc(C(=O)NC6CC6)c5)o4)C3)cn2n1` [Example 494], which EC50 is on record?
Its EC50 is 42 nM.

For `COC(=O)c1cccc(-c2cnc(N[C@@H]3CCCC[C@H]3N[C@H]3CCCN(c4ccc5nc(C)nn5c4)C3)o2)c1` [Example 495], which EC50 is on record?
The EC50 was 49 nM.

`CNC(=O)c1cccc(-c2cnc(N[C@@H]3CCCC[C@H]3N[C@H]3CCCN(c4ccc5nc(C)nn5c4)C3)o2)c1` [Example 496] was tested. Which EC50 did it give?
The EC50 was 4 nM.

`Cc1nc2ccc(N3CCC[C@H](N[C@@H]4CCCC[C@H]4Nc4ncc(-c5cc(F)c(F)cc5F)o4)C3)cn2n1` [Example 497] was tested. Which EC50 did it give?
Its EC50 is 46 nM.

Which EC50 does the source give for `Cc1nc2ccc(N3CCC[C@H](N[C@@H]4CCCC[C@H]4Nc4ncc(-c5cc(F)c(F)c(F)c5)o4)C3)cn2n1` [Example 498] here?
The EC50 was 63 nM.

For `Cn1nnc(-c2ccc(N3CCC[C@H](N[C@@H]4CCCC[C@H]4Nc4ncc(-c5ccc(OC(F)(F)F)cc5)o4)C3)cc2)n1` [Example 499], which EC50 is on record?
The EC50 was 1.4 nM.

With `NC(=O)c1cccc(-c2cnc(N[C@@H]3CCCC[C@H]3N[C@H]3CCCN(c4ccc(-n5cncn5)cc4)C3)o2)c1` [Example 500] as the compound, how does the EC50 read?
The EC50 was 101 nM.

For `Cn1nnc(-c2ccc(N3CCC[C@H](N[C@@H]4CCCC[C@H]4Nc4cc(Br)ccn4)C3)cc2)n1` [Example 501], which EC50 is on record?
The EC50 was 84 nM.

`Cn1nnnc1-c1ccc(N2CCC[C@H](N[C@@H]3CCCC[C@H]3Nc3nccc(-c4ccccc4)n3)C2)cc1` [Example 502] was tested. Which EC50 did it give?
Its EC50 is 98 nM.

`Cn1nnc(-c2ccc(N3CCC[C@H](N[C@@H]4CCCC[C@H]4Nc4cc(-c5ccc(OC(F)F)cc5)ccn4)C3)cc2)n1` [Example 503] was tested. Which EC50 did it give?
Its EC50 is 150 nM.

How did the EC50 turn out when `Cn1nnc(-c2ccc(N3CCC[C@H](N[C@@H]4CCCC[C@H]4Nc4cc(-c5cccc(O)c5)ccn4)C3)cc2)n1` [Example 504] was run?
The EC50 was 0.3 nM.

Which EC50 does the source give for `Cn1nnc(-c2ccc(N3CCC[C@H](N[C@@H]4CCCC[C@H]4Nc4cc(-c5cccc(C(N)=O)c5)ccn4)C3)cc2)n1` [Example 505] here?
The EC50 was 9 nM.

With `CC(=O)Nc1cccc(-c2ccnc(N[C@@H]3CCCC[C@H]3N[C@H]3CCCN(c4ccc(-c5nnn(C)n5)cc4)C3)c2)c1` [Example 506] as the compound, how does the EC50 read?
Its EC50 is 0.2 nM.

How did the EC50 turn out when `Cn1nnc(-c2ccc(N3CCC[C@H](N[C@@H]4CCCC[C@H]4Nc4cc(-c5cccc(NS(C)(=O)=O)c5)ccn4)C3)cc2)n1` [Example 507] was run?
Its EC50 is 6 nM.

How did the EC50 turn out when `Cn1nnnc1-c1ccc(N2CCC[C@H](N[C@@H]3CCCC[C@H]3Nc3cc(-c4cccc(C(N)=O)c4)ccn3)C2)cc1` [Example 508] was run?
Its EC50 is 21 nM.

Which EC50 does the source give for `C[C@]1(N[C@@H]2CCCC[C@H]2Nc2ncc(-c3ccc(OC(F)(F)F)cc3)o2)CCCN(c2ccc(O)cc2)C1` [Example 509] here?
Its EC50 is 128 nM.

`FC(F)(F)Oc1ccc(-c2cnc(N[C@@H]3CCCC[C@H]3N[C@H]3C[C@@H]4C[C@H]3N(c3cc(Cl)ncn3)C4)o2)cc1` [Example 510] was tested. Which EC50 did it give?
Its EC50 is 82 nM.

`NC(=O)c1cccc(-c2ccnc(N[C@@H]3CCCC[C@H]3N[C@H]3CCCN(c4ccc(-n5cccn5)cc4)C3)c2)c1` [Example 511] was tested. Which EC50 did it give?
Its EC50 is 23 nM.

Which EC50 does the source give for `NC(=O)c1cccc(-c2ccnc(N[C@@H]3CCCC[C@H]3N[C@H]3CCCN(c4ccc(-n5cncn5)cc4)C3)c2)c1` [Example 512] here?
The EC50 was 650 nM.

For `COC(=O)Nc1cccc(-c2ccnc(N[C@@H]3CCCC[C@H]3N[C@H]3CCCN(c4ccc(Br)cc4)C3)c2)c1` [Example 513], which EC50 is on record?
Its EC50 is 2 nM.

`COC(=O)Nc1cccc(-c2ccnc(N[C@@H]3CCCC[C@H]3N[C@H]3CCCN(c4ccc(-c5cccnc5)cc4)C3)c2)c1` [Example 514] was tested. Which EC50 did it give?
The EC50 was 4 nM.

How did the EC50 turn out when `COC(=O)Nc1cccc(-c2ccnc(N[C@@H]3CCCC[C@H]3N[C@H]3CCCN(c4ccc(-c5cncnc5)cc4)C3)c2)c1` [Example 515] was run?
The EC50 was 11 nM.

For `COC(=O)Nc1cccc(-c2ccnc(N[C@@H]3CCCC[C@H]3N[C@H]3CCCN(c4ccc(-c5ccccc5)cc4)C3)c2)c1` [Example 516], which EC50 is on record?
The EC50 was 17 nM.
